One compound from patent US20230416196A1, “DIMER OF BIGUANIDINES AND THEIR THERAPEUTIC USES” (INSTITUT CURIE, priority 2020, published 2023) can be followed below.

The nature of test [1]: Copper-catalyzed oxidation of NADH by H2O2 (cell-free). It is filed as biochemical. The conditions noted are these: H2O2 present; FIG. 3C. Here is the method: Copper-catalyzed oxidation of NADH. The oxidation kinetics of NADH (N4505, Sigma-Aldrich) was followed by measurement of absorbance at 340 nm using a NanoDrop 2000. Measurements were performed at 26° C. A 10 mM sodium phosphate buffer adjusted to pH=7.2 was used as solvent. Each 500 μL mixture were prepared with NADH (400 μM), imidazole (56750, Sigma-Aldrich, 10 mM), CuSO4 (451657, Sigma-Aldrich, 4 μM), LCC/K2CO3 solution (1:1) (4 μM or 400 μM), metformin/K2CO3 solution (2:1) (J63361, Alfa Aesar, 800 μM), as indicated, and a H2O2 solution (16911, Sigma-Aldrich, 2 mM from an aq. solution 25-35% in H2O2) added at the reaction start time. The concentration of NADH was calculated from the measured absorbance at 340 nm and a molar extinction coefficient of […] L mol^−1 cm^−1.

In test [2] the test system is EMT induction (E-cadherin, Fibronectin, Slug). Description: Western blot of epithelial and mesenchymal markers upon EMT induction. It counts as cell-based. The conditions noted are these: TGF-β or OSM; FIG. 8D. Here is the method:
Cell culture. MCF7 (ATCC) cells, DU-145 (ATCC) cells and FC1245 cells were cultured in Dulbecco's Modified Eagle Medium GlutaMAX (DMEM, ThermoFisher Scientific, 61965059) supplemented with 10% Fetal Bovine Serum (FBS, Gibco, 10270-106) and Penicillin-Streptomycin mixture (BioWhittaker/Lonza, DE17-602E) unless stated otherwise. Primary lung circulating tumor cells (Celprogen, 36107-34CTC, Lot 219411) were grown using stem cell complete media (Celprogen, M36102-29PS) until the third passage. Circulating cancer cells were grown in stem cell ECM T75-flasks (Celprogen, E36102-29-T75) and ECM 6-well plates (Celprogen, E36102-29-6Well). […]
Western Blotting. […] Proteins were solubilized in 2× Laemmli buffer containing benzonase (VWR, 70664-3, 1:100), extracts were incubated at 37° C. for 1 h, and quantified using a NanoDrop 2000 spectrophotometer (ThermoFisher Scientific). […] Antigens were detected using the SuperSignal West Pico PLUS chemiluminescent detection kits (ThermoFisher Scientific, 34580 and 34096). Signals were recorded using a Fusion Solo S Imaging System (Vilber) and quantified as indicated using ImageJ. […]
(In general: In western blotting, separated proteins are transferred to a membrane and probed.)

The next test concerns U937 cells. Description: Cell viability assay (CellTiter-Blue) on lymphoma cell line U937. It counts as cell-based. The conditions noted are these: Homo sapiens, U-937, 72 h treatment. How it is done: Cell culture. U-937 cells were grown in an incubator equilibrated at 37° C. with 5% CO2, grown to confluence and split with Trypsin/EDTA (Gibco, […]01) once or twice a week according to confluence. U-937 (ATCC, HTB-132) were cultured in RPMI 1640 GLUTAMAX (ThermoFisher Scientific, 61870044) supplemented with 10% Fetal Bovine Serum (FBS, Gibco, 10270-106) and Penicillin-Streptomycin mixture (BioWhittaker/Lonza, DE17-602E). […] Peripheral blood samples were collected from distinct healthy donors (Etablissement Français du Sang). Pan monocytes were isolated by negative magnetic sorting using microbeads according to the manufacturer's instructions (Miltenyi Biotec, 130-096-537), and cultured in RPMI 1640 supplemented with glutamine (Thermo Fisher Scientific, 61870010), 10% fetal bovine serum and exposed to granulocyte-macrophage colony-stimulating factor (GM-CSF, Miltenyi Biotec, 130-093-866, 100 ng/mL) to induce differentiation into macrophages (MDM). […] Cell viability assay (IC50). Cell viability assay was carried out by plating 1000 cells/well in 96-well plates. Cells were treated for 72 h in a range between to 25 nM and […] using serial dilutions. The inventors followed the manufacturer's protocol. In brief, CellTiter-Blue® reagent (G8081, Promega) was added after 72 h treatment and cells were incubated for 3 h before recording fluorescence intensities (λex. 560/20 nm; λem. 590/10 nm) using a Perkin Elmer Wallac 1420 Victor2 Microplate Reader.
Background: The colour change of resazurin is a common sign of viable cells or microbes.

Consider `N=C(N)NC(=N)NCCCCCCCCCCCCNC(=N)NC(=N)N` [LCC-12, lipophilic copper clamp C12], for which the “rate of NADH oxidation catalyzed by copper(II)” value in test [1] was “more pronounced effect”. The “EMT induction (E-cadherin, Fibronectin, Slug levels)” value in test [2] is listed as “antagonized EMT induction”. For the same compound, half-maximal inhibition with U937 cells (IC50) was put at 2 µM.
